{"source": "patent US20240390251A1", "about": "“SKIN CARE COMPOSITION AND USE THEREOF, AND SKIN CARE COMPOSITION RAW MATERIAL” (YAMASA CORPORATION, priority 2021, published 2024)", "key": {"[1]": {"system": "inflammatory cytokine production", "experiment": "Anti-inflammatory evaluation of purine nucleotides in a similar experimental system", "format": "cell-based, human", "conditions": "similar experimental system to Example 1", "description": "(§1) Normal human keratinocytes (NHEK; manufactured by Kurabo Industries, Ltd.) were seeded in a 96-well plate at a density of 2.5×10^4 cells/well and cultured at 37° C. for 24 hours. The medium was replaced with 100 μL of sample-containing medium (HuMedia-KG2; manufactured by Kurabo Industries, Ltd.) and cultured for 24 hours. After removing the sample-containing medium, the plate was washed with 100 μL of Hanks balanced salt solution (HBSS (−)) and irradiated with 20 mJ/cm^2 using a UVB lamp (TL20W/12RS; manufactured by PHILIPS). After washing with HBSS (−), the medium was replaced with 100 μL of fresh medium and cultured for 24 hours. After culturing, the culture supernatant was collected. The sample solutions used were 0.8 (mg/mL) of UMP,2Na 0.4, 0.8 (mg/mL) of CMP,2Na 0.4, 0.8 (mg/mL) of U:C=1:1 (mass ratio 1:1 mixture of UMP,2Na and CMP,2Na) 0.4, 0.8 (mg/mL) of U:C=4:1 (mass ratio 4:1 mixture of UMP,2Na and CMP,2Na) 0.4, and 0.8 (mg/mL) of U:C=1:4 (mass ratio 1:4 mixture of UMP,2Na and CMP,2Na) 0.4.\nThe culture supernatant of human keratinocytes was collected, and amounts of IL-1α, IL-6, and IL-8 were quantified by ELISA."}, "IL-6 [2]": {"system": "IL-6", "experiment": "Anti-inflammatory evaluation using UVB-irradiated normal human keratinocytes, IL-6 by ELISA", "format": "cell-based", "conditions": "NHEK, FIG. 2; for concentration dependence of the inhibitory effect on IL-6 / amount of IL-6 produced: UVB 20 mJ/cm^2, sample 0.4 and 0.8 mg/mL; for amount of IL-6 produced: culture supernatant", "description": "as §1, with “The effects of using various nucleotides on photoaging of the skin were evaluated using normal human keratinocytes. The effects of various nucleotides on inflammatory cytokines induced by UV irradiation of normal human keratinocytes were evaluated. Known inflammatory cytokines IL-1α, IL-6, and IL-8 were used as the inflammatory cytokines to be evaluated. Normal” for “Normal”, “(-))” for “(−))”, “(T[…]/12RS;” for “(TL20W/12RS;”, “(-),” for “(−),”, “0.4. The culture supernatant of human keratinocytes was collected, and amounts of IL-1α, IL-6, and IL-8 were quantified by ELISA.” for “0.4.”"}, "IL-6 [3]": {"system": "IL-6", "experiment": "Anti-inflammatory evaluation using UVB-irradiated three-dimensional cultured human epidermis, IL-6 by ELISA", "format": "cell-based", "conditions": "UVB 600 mJ/cm^2, tested 0.125-1.0 w/v %, FIG. 5", "description": "(§2) To reproduce the phenomenon that occurs in actual epidermis, three-dimensional cultured human epidermis was used to evaluate the suppression effect of cytidylic acid on inflammatory cytokines induced by UV irradiation. In addition, to verify the relationship between the amount of cytidylic acid and the suppression effect on inflammatory cytokine production, the effects of varying the amount of cytidylic acid were evaluated.\n(§3) Three-dimensional cultured human epidermis (LabCyte EPI MODEL 24; manufactured by J TEC) was set in a 24-well plate to which 500 μL of the attached assay medium was added, and acclimated overnight at 37° C. 50 μL of sample-containing PBS (−) was applied from the stratum corneum side and cultured for 24 hours. After removing the sample-containing PBS (−), the plate was washed with PBS (−) and irradiated with 600 mJ/cm^2 using a UVB lamp (TL20W/12RS; manufactured by PHILIPS). The medium was replaced with a fresh medium, 50 μL of sample-containing PBS (−) was newly applied from the stratum corneum side, and further cultured for 48 hours. After culturing, the culture supernatant was collected. The concentrations of cytidylic acid in the respective samples were 0, 0.125, 0.25, 0.5, and 1.0 (w/v %), respectively. Each inflammatory cytokine contained in the supernatant was quantified by ELISA."}, "IL-1α [4]": {"system": "IL-1α", "experiment": "Anti-inflammatory evaluation using UVB-irradiated normal human keratinocytes, IL-1α by ELISA", "format": "cell-based", "conditions": "NHEK, UVB 20 mJ/cm^2, sample 0.4 and 0.8 mg/mL, FIG. 1; for amount of IL-1α produced: culture supernatant", "description": "as §1, with “The effects of using various nucleotides on photoaging of the skin were evaluated using normal human keratinocytes. The effects of various nucleotides on inflammatory cytokines induced by UV irradiation of normal human keratinocytes were evaluated. Known inflammatory cytokines IL-1α, IL-6, and IL-8 were used as the inflammatory cytokines to be evaluated. Normal” for “Normal”, “(-))” for “(−))”, “(T[…]/12RS;” for “(TL20W/12RS;”, “(-),” for “(−),”, “0.4. The culture supernatant of human keratinocytes was collected, and amounts of IL-1α, IL-6, and IL-8 were quantified by ELISA.” for “0.4.”"}, "IL-8 [5]": {"system": "IL-8", "experiment": "Anti-inflammatory evaluation using UVB-irradiated three-dimensional cultured human epidermis, IL-8 by ELISA", "format": "cell-based", "conditions": "UVB 600 mJ/cm^2, tested 0.125-1.0 w/v %, FIG. 6", "description": "as §2, §3"}, "IL-1α [6]": {"system": "IL-1α", "experiment": "Anti-inflammatory evaluation using UVB-irradiated three-dimensional cultured human epidermis, IL-1α by ELISA", "format": "cell-based", "conditions": "UVB 600 mJ/cm^2, tested 0.125-1.0 w/v %, FIG. 4", "description": "as §2, §3"}, "IL-8 [7]": {"system": "IL-8", "experiment": "Anti-inflammatory evaluation using UVB-irradiated normal human keratinocytes, IL-8 by ELISA", "format": "cell-based", "conditions": "NHEK, FIG. 3; for concentration dependence of the inhibitory effect on IL-8 / amount of IL-8 produced: UVB 20 mJ/cm^2, sample 0.4 and 0.8 mg/mL; for amount of IL-8 produced: culture supernatant", "description": "as §1, with “The effects of using various nucleotides on photoaging of the skin were evaluated using normal human keratinocytes. The effects of various nucleotides on inflammatory cytokines induced by UV irradiation of normal human keratinocytes were evaluated. Known inflammatory cytokines IL-1α, IL-6, and IL-8 were used as the inflammatory cytokines to be evaluated. Normal” for “Normal”, “(-))” for “(−))”, “(T[…]/12RS;” for “(TL20W/12RS;”, “(-),” for “(−),”, “0.4. The culture supernatant of human keratinocytes was collected, and amounts of IL-1α, IL-6, and IL-8 were quantified by ELISA.” for “0.4.”"}, "[8]": {"conditions": "UVB 20 mJ/cm^2, significant difference between uridylic acid and cytidylic acid"}}}
{"smiles": "Nc1ncnc2c1ncn2[C@@H]1O[C@H](COP(=O)(O)O)[C@@H](O)[C@H]1O", "note": "[adenylic acid]", "values": [{"measurement": "effect of inhibiting inflammatory cytokine production, compared with cytidylic acid and uridylic acid", "setting": "[1]", "value": "only a lower effect of inhibiting inflammatory cytokine production than cytidylic acid and uridylic acid"}]}
{"smiles": "Nc1ccn([C@@H]2O[C@H](COP(=O)(O)O)[C@@H](O)[C@H]2O)c(=O)n1", "note": "[cytidylic acid]", "values": [{"measurement": "concentration dependence of the inhibitory effect on IL-6", "setting": "IL-6 [2]", "value": "increased the inhibitory effect in a concentration-dependent manner"}, {"measurement": "amount of IL-6 produced", "setting": "IL-6 [2]", "value": "suppressed the amount of IL-6 produced"}, {"measurement": "effect of inhibiting IL-6 production, compared with uridylic acid", "setting": "IL-6 [2]; [8]", "value": "particularly remarkable effect of inhibiting IL-6 production"}, {"measurement": "concentration at which a significant IL-6 production inhibitory effect was observed", "setting": "IL-6 [3]", "value": "≥ 0.125", "unit": "%"}, {"measurement": "concentration dependence of the inhibitory effect on IL-1α", "setting": "IL-1α [4]", "value": "increased the inhibitory effect in a concentration-dependent manner"}, {"measurement": "amount of IL-1α produced", "setting": "IL-1α [4]", "value": "suppressed the amount of IL-1α produced"}, {"measurement": "concentration at which a significant IL-8 production inhibitory effect was observed", "setting": "IL-8 [5]", "value": "≥ 0.125", "unit": "%"}, {"measurement": "concentration at which a significant IL-1α production inhibitory effect was observed", "setting": "IL-1α [6]", "value": "≥ 0.25", "unit": "%"}, {"measurement": "concentration dependence of the inhibitory effect on IL-8", "setting": "IL-8 [7]", "value": "increased the inhibitory effect in a concentration-dependent manner"}, {"measurement": "amount of IL-8 produced", "setting": "IL-8 [7]", "value": "suppressed the amount of IL-8 produced"}, {"measurement": "effect of inhibiting IL-8 production, compared with uridylic acid", "setting": "IL-8 [7]; [8]", "value": "particularly remarkable effect of inhibiting IL-8 production"}]}
{"smiles": "Nc1nc2c(ncn2[C@@H]2O[C@H](COP(=O)(O)O)[C@@H](O)[C@H]2O)c(=O)[nH]1", "note": "[guanylic acid]", "values": [{"measurement": "effect of inhibiting inflammatory cytokine production, compared with cytidylic acid and uridylic acid", "setting": "[1]", "value": "only a lower effect of inhibiting inflammatory cytokine production than cytidylic acid and uridylic acid"}]}
{"smiles": "O=c1ccn([C@@H]2O[C@H](COP(=O)(O)O)[C@@H](O)[C@H]2O)c(=O)[nH]1", "note": "[uridylic acid]", "values": [{"measurement": "concentration dependence of the inhibitory effect on IL-6", "setting": "IL-6 [2]", "value": "increased the inhibitory effect in a concentration-dependent manner"}, {"measurement": "amount of IL-6 produced", "setting": "IL-6 [2]", "value": "suppressed the amount of IL-6 produced"}, {"measurement": "concentration dependence of the inhibitory effect on IL-1α", "setting": "IL-1α [4]", "value": "increased the inhibitory effect in a concentration-dependent manner"}, {"measurement": "amount of IL-1α produced", "setting": "IL-1α [4]", "value": "suppressed the amount of IL-1α produced"}, {"measurement": "concentration dependence of the inhibitory effect on IL-8", "setting": "IL-8 [7]", "value": "increased the inhibitory effect in a concentration-dependent manner"}, {"measurement": "amount of IL-8 produced", "setting": "IL-8 [7]", "value": "suppressed the amount of IL-8 produced"}]}
